From patent US20220073496A1, “NOVEL QUINOLINE DERIVATIVE INHIBITOR” (Nanjing Transthera Biosciences Co., Ltd., priority 2018, published 2022) come the findings set out here.

A short description of data set [1]: Stability in liver microsome of mice. Particulars: liver microsomes; Mouse liver microsome 0.5 mg protein/mL, compound 1 μM, 37° C. It counts as in vitro ADME. The protocol:
(§1) Assay 1: Stability assessment of the compounds of the present invention in liver microsome of mice and dogs
(§2) Test substances: the compounds of the present invention, wherein the structures and preparations thereof were as described above.
(§3) The composition of the incubation system:
(§4) Preparation of Test Substances:
(§5) An appropriate amount of the compound was accurately weighed and dissolved in DMSO to prepare a 5.0 mM stock solution. The 5.0 mM stock solution was diluted to 1.0 mM with DMSO, and finally diluted with water to a 10 μM test substance working solution for use (the DMSO content in the reaction system was 0.1%).
(§6) (1) The liver microsome (20 mg protein/mL) was taken out from the −80° C. refrigerator, pre-incubated at 37° C. with a water-bathing constant temperature vibrator for 3 minutes, and melted for use.
(§7) (2) A mixed solution of the incubation system (excluding compounds and β-NADPH) according to the above “composition of the incubation system” for the assay was prepared, and pre-incubated at 37° C. with a water-bathing constant temperature vibrator for 2 minutes.
(§8) (3) Control group (excluding β-NADPH): 30 μL of water and 30 μL of compound working solution (10 μM) were added to 240 μL of the mixed solution of the incubation system of step (2), and vortexed for 30 seconds to mix well. The total reaction volume was 300 μL. A duplicate sample was prepared. The sample was incubated at 37° C. with a water-bathing constant temperature vibrator. The timekeeping began and the sampling time points were set at 0 minute and 60 minutes.
(§9) (4) Sample group: 70 μL of β-NADPH solution (10 mM) and 70 μL of compound working solution (10 μM) were added to 560 μL of the mixed solution of step (2). The total reaction volume was 700 μL. The resulting mixture was vortexed for 30 seconds to mix well. A duplicate sample was prepared. The sample was incubated at 37° C. with a water-bathing constant temperature vibrator. The timekeeping began and the sampling time points were set at 0 minute, 5 minutes, 10 minutes, 20 minutes, 30 minutes, and 60 minutes after timekeeping.
(§10) (5) After vortexing for 3 minutes, the sample was centrifuged at 4000 rpm for 10 minutes.
(§11) (6) 50 μL of the supernatant was taken and 150 μL of water was added. The resulting mixture was vortexed to mix well, and analyzed by LC/MS/MS.
(§12) The half-life (t1/2) and clearance rate (Cl) were calculated using the following first-order kinetic formula:
(§13) Vd=1/protein content in liver microsome
(§14) Note: k was the slope of the logarithm of the remaining amount of the compound versus time, and Vd was the apparent distribution volume.

A short description of data set [2]: Stability in liver microsome of dogs. The data set is classed as in vitro ADME. Particulars: liver microsomes; Dog liver microsome 0.5 mg protein/mL, compound 1 μM, 37° C. The protocol:
as §1, §2, §3, §4, §5, §6, §7, §8, §9, §10, §11, §12, §13, §14

The target of a further data set is T1, H1299 cell pAxl (Homo sapiens, UniProt P30530).
T1 construct: endogenous in cells; host or cells: H1299
T1 sequence (P30530 26-894): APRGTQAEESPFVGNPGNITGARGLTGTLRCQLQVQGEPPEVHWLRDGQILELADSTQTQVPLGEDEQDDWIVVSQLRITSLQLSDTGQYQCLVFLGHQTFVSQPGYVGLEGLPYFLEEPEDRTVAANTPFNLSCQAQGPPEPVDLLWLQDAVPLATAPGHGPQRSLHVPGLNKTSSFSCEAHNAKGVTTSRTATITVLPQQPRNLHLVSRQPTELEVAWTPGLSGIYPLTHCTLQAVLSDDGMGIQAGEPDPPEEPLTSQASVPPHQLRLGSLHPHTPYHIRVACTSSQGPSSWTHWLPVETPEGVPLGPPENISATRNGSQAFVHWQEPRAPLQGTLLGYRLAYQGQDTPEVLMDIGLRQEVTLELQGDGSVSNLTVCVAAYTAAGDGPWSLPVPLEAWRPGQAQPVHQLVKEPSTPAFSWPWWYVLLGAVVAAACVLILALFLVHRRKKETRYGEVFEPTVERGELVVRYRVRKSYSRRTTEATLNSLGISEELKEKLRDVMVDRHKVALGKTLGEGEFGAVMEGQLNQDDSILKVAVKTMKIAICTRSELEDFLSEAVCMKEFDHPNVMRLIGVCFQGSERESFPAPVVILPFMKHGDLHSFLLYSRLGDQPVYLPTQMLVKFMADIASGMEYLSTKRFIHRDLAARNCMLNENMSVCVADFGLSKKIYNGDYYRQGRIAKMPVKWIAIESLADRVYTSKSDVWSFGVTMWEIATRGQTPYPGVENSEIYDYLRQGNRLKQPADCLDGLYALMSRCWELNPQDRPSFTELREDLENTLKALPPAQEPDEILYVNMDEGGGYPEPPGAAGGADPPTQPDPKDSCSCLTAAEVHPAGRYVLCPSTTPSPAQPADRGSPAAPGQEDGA
Briefly: Inhibitory activity on the cell pAxl (Western Blot). The data set is classed as cell-based. The following applies: H1299 cells, compound 1.1, 3.3, 10, 30 nM, hGAS6 200 ng/mL. As to the method: Assay 5: Test for Inhibitory Activities of the Compounds of the Present Invention on the Cell pAxl
H1299 is a non-small cell lung cancer cell.
Test substances: the compounds of the present invention, wherein the structures thereof were as described above.
Test equipment: protein electrophoresis apparatus (manufactured by Bio Rad), transfer unit (manufactured by Bio Rad), exposure unit (manufactured by Tanon), CO2, cell incubator (manufactured by Thermo).
The H1299 cells were inoculated in a 6-well plate (containing 10% FBS 1640 medium, 5×10^5 cells per well), and adherent cells were cultivated at 37° C. in a 5% CO2 condition for 18 hours. The cells were starved overnight. Different concentrations of compounds were added. The final compound concentrations were 1.1, 3.3, 10, and 30 nM, and the final DMSO content was 1‰. The negative control wells contained the medium containing 1‰ DMSO. After incubating at 37° C. in a 5% CO2 condition for 60 minutes, hGAS6 (R&D, final concentration 200 ng/mL) was added to each well. After further incubating for 60 minutes, the cell total protein was extracted for Western Blot and the […] values were calculated using GraphPad 5.0 software. The inhibitory activity of the compound on the cell pAxl was examined.
In general terms: A western blot detects proteins with antibodies after separation by electrophoresis.

Broadly, the half-life is the time in which the quantity being followed falls by half. Read a high half-life as slow decline. For orientation: microsomal CLint means the rate of metabolic loss divided by the concentration. Broadly, the IC50 is the concentration at which inhibition is half-maximal. With `COc1cc2nccc(Oc3ncc(NC(=O)c4cn(C5CC5)nc(-c5ccc(F)cc5)c4=O)cn3)c2cc1OC` [Compound 44, 2-cyclopropyl-N-(2-((6,7-dimethoxyquinolin-4-yl)oxy)pyrimidine-5-yl)-6-para-fluorophenyl-5-oxo-2,5-dihydropyridazine-4-carboxamide], in data set [1], the half-life at 1 μM was determined as 2.13 h and the microsomal CLint at 1 μM amounted to 10.8 µL/min/mg. Besides, in data set [2], the half-life at 1 μM was found to be 3.73 h and the microsomal CLint at 1 μM came to 6.2 µL/min/mg. At H1299 cell pAxl, this molecule gave an IC50 of 3.3 to 10 nM.
